Like-named read-outs stand apart in the source and are kept apart here.
Key:
SARS-CoV-2-Nluc = test: microbe, parasite or virus in culture; assay type: cell-based
in vitro = conditions: human
[1] = read-out: EC50 (µM) Replicate 1
[2] = read-out: EC50 (µM) Replicate 2
[3] = Severe acute respiratory syndrome coronavirus 2, 48 h
[4] = Severe acute respiratory syndrome coronavirus 2, read-out: EC50 (µM) Replicate 1
[5] = Severe acute respiratory syndrome coronavirus 2, read-out: EC50 (µM) Replicate 2

Compound	EC50 (SARS-CoV-2-Nluc; read-out: EC50) [µM]	EC50 (SARS-CoV-2-Nluc; [1]) [µM]	EC50 (SARS-CoV-2-Nluc; [2]) [µM]	EC50 (SARS-CoV-2-Nluc; [3]) [µM]	EC50 (SARS-CoV-2-Nluc; [4]) [µM]	EC50 (SARS-CoV-2-Nluc; [5]) [µM]	CC50 (in vitro; CC50) [µM]	CC50 (in vitro; CC50 (µM) Replicate 1) [µM]	CC50 (in vitro; CC50 (µM) Replicate 2) [µM]	Selectivity index (SI) = CC50/EC50 (SARS-CoV-2-Nluc)	EC50 (SARS-CoV-2-Nluc) [µM]
CCOC(=O)[C@H](C)N[P@](=O)(CO[C@@H]1C=C(F)[C@H](n2cnc3c(N)ncnc32)O1)Oc1ccccc1 [Rovafovir (GS-9131), Rovafovir]	> 10	> 10	> 10	–	–	–	–	–	–	–	–
CCC(CC)O[C@@H]1C=C(C(=O)O)C[C@H](N)[C@H]1NC(C)=O [Oseltamivir carboxylate]	–	–	–	> 10	> 10	> 10	> 50	> 50	> 50	–	–
CC1=CC[C@H](C(=O)N(c2cc(C#CC(C)(C)C)sc2C(=O)O)[C@H]2CC[C@](O)(CO[C@H]3CCOC3)CC2)CC1 [Radalbuvir]	–	–	–	> 10	> 10	> 10	> 50	> 50	> 50	–	–
Fc1ccccc1-c1nc2ccn(Cc3ccc(-c4ccc(C(F)(F)F)cc4C(F)(F)F)nn3)cc-2n1 [Tegobuvir]	–	–	–	> 10	> 10	> 10	17.9 ± 3.1	20	15.7	–	–
Cc1cn2nc([C@@H]3CCCCN3C(=O)c3cc(Cl)ccc3NS(C)(=O)=O)cc2nc1N1CC[C@H](N)C1 [Presatovir]	–	–	–	2.53 ± 0.69	3.01	2.04	–	–	–	–	–
Nc1ccn(C[C@@H](CO)OCP(=O)(O)O)c(=O)n1 [Cidofovir]	–	–	–	> 10	> 10	> 10	> 50	> 50	> 50	–	–
CC(C)c1nc(CN(C)C(=O)N[C@H](C(=O)N[C@@H](Cc2ccccc2)C[C@H](O)[C@H](Cc2ccccc2)NC(=O)OCc2cncs2)C(C)C)cs1 [Ritonavir]	–	–	–	> 10	> 10	> 10	–	–	–	–	–
C=C1[C@H](CO)[C@@H](O)C[C@@H]1n1cnc2c(=O)[nH]c(N)nc21 [Entecavir]	–	–	–	> 10	> 10	> 10	> 50	> 50	> 50	–	–
COC[C@H]1C[C@@H](c2ncc(-c3ccc4c(c3)COc3cc5c(ccc6nc([C@@H]7CC[C@H](C)N7C(=O)[C@@H](NC(=O)OC)C(C)C)[nH]c65)cc3-4)[nH]2)N(C(=O)[C@H](NC(=O)OC)c2ccccc2)C1 [Velpatasvir]	–	–	–	> 10	> 10	> 10	> 50	> 50	> 50	–	–
CC(C)OC(=O)[C@H](C)N[P@](=O)(OC[C@H]1O[C@@](C#N)(c2ccc3c(N)ncnn23)[C@](C)(O)[C@@H]1OC(=O)C(C)C)Oc1ccccc1 [GS-6620]	–	–	–	> 10	> 10	> 10	> 50	> 50	> 50	–	–
Nc1ccn([C@@H]2O[C@@](CO)(CCl)[C@@H](O)[C@H]2F)c(=O)n1 [ALS-8112]	–	–	–	> 10	> 10	> 10	> 50	> 50	> 50	–	–
CC(C)(C)NC(=O)[C@@H]1CN(Cc2cccnc2)CCN1C[C@@H](O)C[C@@H](Cc1ccccc1)C(=O)N[C@H]1c2ccccc2C[C@H]1O [Indinavir]	–	–	–	> 10	> 10	> 10	> 50	> 50	> 50	–	–
Voxilaprevir	> 10	> 10	> 10	–	–	–	–	–	–	–	–
CCOc1nc(N)nc2c1ncn2[C@@H]1O[C@@H]2COP(=O)(OC(C)C)O[C@H]2[C@@]1(C)F (stereo partly drawn) [PSI-352938]	–	–	–	> 10	> 10	> 10	> 50	> 50	> 50	–	–
CC(C)CN(C[C@@H](O)[C@H](Cc1ccccc1)NC(=O)O[C@H]1CO[C@H]2OCC[C@H]21)S(=O)(=O)c1ccc(N)cc1 [Darunavir]	–	–	–	> 10	> 10	> 10	> 50	> 50	> 50	–	–
COc1ccc2c(O[C@@H]3C[C@H]4C(=O)N[C@]5(P(=O)(O)Cc6c(F)cccc6F)C[C@H]5CCCCCCC[C@H](NC(=O)OC5CCCC5)C(=O)N4C3)cc(-c3csc(NC(C)C)n3)nc2c1Cl [GS-9256]	–	–	–	> 10	> 10	> 10	31.8 ± 10.9	39.5	24.1	–	–
C=CC(=O)N1CCC[C@@H](n2nc(-c3ccc(Oc4ccccc4)cc3)c3c(N)ncnc32)C1 [Ibrutinib]	–	–	–	> 10	–	–	> 50	–	–	–	–
O=C1c2c(O)c(=O)ccn2N([C@@H]2c3ccccc3SCc3c2ccc(F)c3F)[C@@H]2COCCN12 [Baloxavir]	–	–	–	> 10	> 10	> 10	47 ± 1.3	46	47.9	–	–
CC(C)OC(=O)[C@H](C)N[P@](=O)(OC[C@H]1O[C@@H](n2ccc(=O)[nH]c2=O)[C@](C)(F)[C@@H]1O)Oc1ccccc1 [Sofosbuvir]	–	–	–	> 10	> 10	> 10	> 50	> 50	> 50	–	–
CC[C@@H]1C[C@]1(NC(=O)[C@@H]1C[C@@H](Oc2cc(-c3csc(NC(C)C)n3)nc3c(Cl)c(OCCN4CCOCC4)ccc23)CN1C(=O)[C@@H](NC(=O)O[C@@H]1C[C@@H]2C[C@@H]2C1)C(C)(C)C)C(=O)O [GS-9451]	–	–	–	> 10	> 10	> 10	> 50	> 50	> 50	–	–
CCOC(=O)/C=C/[C@H](C[C@@H]1CCNC1=O)NC(=O)[C@@H](CC(=O)[C@@H](NC(=O)c1cc(C)on1)C(C)C)Cc1ccc(F)cc1 [Rupintrivir]	–	–	–	1.87 ± 0.47	1.53	2.2	> 50	> 50	> 50	>26.7	–
NC(=O)c1ncn([C@@H]2O[C@H](CO)[C@@H](O)[C@H]2O)n1 [Ribavirin]	–	–	–	> 10	> 10	> 10	> 50	> 50	> 50	–	–
NC(=O)c1nc(F)c[nH]c1=O [Favipiravir (T-705), Favipiravir]	–	–	–	> 10	> 10	> 10	> 50	> 50	> 50	–	–
CC#CC(=O)N1CC[C@@H](n2c(=O)n(-c3ccc(Oc4ccccc4)cc3)c3c(N)ncnc32)C1 [Tirabrutinib]	–	–	–	> 10	> 10	> 10	> 50	> 50	> 50	–	–
N#C[C@@]1(c2ccc3c(N)ncnn23)O[C@H](CO)[C@@H](O)[C@H]1O [GS-441524]	–	–	–	0.869 ± 0.289	1.07	0.665	> 50	> 50	> 50	–	–
O=C(Nc1ccc([N+](=O)[O-])cc1Cl)c1cc(Cl)ccc1O [Niclosamide]	–	–	–	0.715 ± 0.332	0.95	0.48	1.28 ± 0.23	1.44	1.12	1.8	–
COC(=O)N[C@H](C(=O)N1CC2(CC2)C[C@H]1c1ncc(-c2ccc3c(c2)C(F)(F)c2cc(-c4ccc5nc([C@@H]6[C@H]7CC[C@H](C7)N6C(=O)[C@@H](NC(=O)OC)C(C)C)[nH]c5c4)ccc2-3)[nH]1)C(C)C [Ledapisvir]	–	–	–	> 10	> 10	> 10	> 50	> 50	> 50	–	–
CC(C)c1nc(CN(C)C(=O)N[C@@H](CCN2CCOCC2)C(=O)N[C@H](CC[C@H](Cc2ccccc2)NC(=O)OCc2cncs2)Cc2ccccc2)cs1 [Cobicistat]	–	–	–	2.7	2.6	2.88	47.3 ± 2.5	45.6	49.1	17.3	2.74 ± 0.2

— article PMC7567097, “A nanoluciferase SARS-CoV-2 for rapid neutralization testing and screening of anti-infective drugs for COVID-19” (Nature Communications, 2020)
